The values that follow come from PubChem BioAssay (NCI).

Test systems include OVCAR-8 ovarian; DLD-1 colon; HT29 colon; MOLT-4 leukemia; HOP-62 NSCLC; DMS 114 small cell lung; M14 melanoma; HL-60(TB) leukemia; UACC-257 melanoma; BT-549 breast.
Assay in all cases: NCI anticancer screen, dose series, 48 h

Molecules are shown by their SMILES.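 96-well plates; 48 h exposure; 5 concentrations. Endpoints by linear interpolation between flanking doses. Not reached: highest tested concentration assigned. GI50 is the concentration that inhibits growth by half. The concentration for full growth arrest is given as TGI.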

As to `CCOC(=O)C(=Cc1ccc(C(=O)OC)cc1)C(=O)OCC`, the TGI with OVCAR-8 ovarian amounted to 10.3 µM; in the test on DLD-1 colon it was 4.46 µM; in the test with HT29 colon, 18.1 µM; with MOLT-4 leukemia, 7.74 µM; in the test on HOP-62 NSCLC, 4.43 µM; in the test on DMS 114 small cell lung, 3.74 µM. Also, the values for the TGI in the test with M14 melanoma and in the test with HL-60(TB) leukemia were 3.36 µM and 4.36 µM, respectively.

Consider `CCCCOP1(=O)C=C(C)C(=C(Cl)Cl)C(C)=C1` (stereo not drawn), for which the TGI was 11.5 µM in the test on UACC-257 melanoma; more than 54.2 µM with OVCAR-8 ovarian; 38.9 µM with DLD-1 colon; 29.9 µM in the test on HT29 colon; more than 48.2 µM in the test on MOLT-4 leukemia; 32.7 µM in the test with HOP-62 NSCLC. For the same compound, the TGI in the test with DMS 114 small cell lung was 10.8 µM; in the test with M14 melanoma, 54.8 µM; with HL-60(TB) leukemia, 8.26 µM.

Consider `NC(=O)C(c1ccccc1)N1CCOCC1` (stereo not drawn), for which the TGI in the test with UACC-257 melanoma, with OVCAR-8 ovarian, with DLD-1 colon, with HT29 colon, in the test on MOLT-4 leukemia and in the test on HOP-62 NSCLC was more than 100 µM in each case. Besides, the TGI with DMS 114 small cell lung, in the test on M14 melanoma and in the test on HL-60(TB) leukemia was more than 100 µM in each case.

As to `COc1ccccc1NC(=O)C1=C(C)NC(C)=C(C(=O)Nc2ccccc2OC)C1c1ccc(C)cc1`, the TGI with UACC-257 melanoma, in the test with OVCAR-8 ovarian, in the test on HT29 colon, with HOP-62 NSCLC, with DMS 114 small cell lung and in the test with M14 melanoma was more than 100 µM in each case.

As to `CCN(c1ccc(Br)cc1)c1c(Br)c(=O)nc2ccccn12`, the TGI in the test on OVCAR-8 ovarian, with DLD-1 colon, in the test with HT29 colon, with MOLT-4 leukemia, in the test on HOP-62 NSCLC and in the test on DMS 114 small cell lung was more than 100 µM in each case. Further, the TGI in the test with M14 melanoma was more than 100 µM.

As for `COc1cccc(Cc2c3cc(OC)ccc3cc[n+]2C)c1`, the TGI with UACC-257 melanoma was 51.6 µM; in the test with OVCAR-8 ovarian, more than 100 µM; in the test with DLD-1 colon, more than 100 µM; with HT29 colon, more than 100 µM; in the test with MOLT-4 leukemia it was more than 100 µM; in the test with HOP-62 NSCLC it was more than 100 µM. The compound also had a TGI in the test with M14 melanoma of more than 100 µM.

With `CC(=O)OC1(C)C(=O)OC1(C)C(C)=O` (stereo not drawn), the TGI in the test with UACC-257 melanoma, in the test with OVCAR-8 ovarian, with DLD-1 colon, in the test on HT29 colon, in the test with MOLT-4 leukemia and with DMS 114 small cell lung was more than 100 µM throughout. For the same compound, the TGI in the test with M14 melanoma and in the test with HL-60(TB) leukemia was more than 100 µM each time.

For the compound `CC1=CCC23C(C1)OC(Br)(C=CC2(C)O)C3(C)C` (stereo not drawn), the TGI in the test on UACC-257 melanoma, in the test on OVCAR-8 ovarian, with DLD-1 colon, in the test on HT29 colon, with DMS 114 small cell lung and in the test on HL-60(TB) leukemia was more than 100 µM in each case.

For the compound `CCCCCCCCCCCCSC(=N)N`, the GI50 was 13.8 µM in the test on UACC-257 melanoma; 5.77 µM in the test with OVCAR-8 ovarian; 2.2 µM in the test on HT29 colon; 2.46 µM in the test on MOLT-4 leukemia; 18.9 µM in the test on BT-549 breast; 10.7 µM in the test with HOP-62 NSCLC. For the same compound, the GI50 in the test on M14 melanoma was 5.16 µM; in the test on HL-60(TB) leukemia, 2.02 µM. For the same compound, the TGI with UACC-257 melanoma came to 27.3 µM; in the test with OVCAR-8 ovarian, 23.4 µM; with HT29 colon, 5.73 µM; in the test with MOLT-4 leukemia, 5.85 µM; in the test on BT-549 breast it was 47.1 µM; in the test with HOP-62 NSCLC, 28.9 µM. Also, the TGI was found to be 17.2 µM in the test with M14 melanoma and 4.27 µM with HL-60(TB) leukemia.

Take `O=C(CC(=O)N1N=C(N2c3ccccc3Sc3ccccc32)CC1c1ccccc1)Nc1ccc(Cl)cc1` (stereo not drawn): the TGI in the test with UACC-257 melanoma, with OVCAR-8 ovarian, with DLD-1 colon, in the test with HT29 colon, with HOP-62 NSCLC and in the test with DMS 114 small cell lung was more than 100 µM throughout. The compound further returned a TGI in the test on M14 melanoma of more than 100 µM.

In the case of `C#Cc1c(C(N)=O)ncn1C1OC(COP(=O)(OCc2ccc([N+](=O)[O-])o2)N(C)CCCCCl)C(O)C1O` (stereo not drawn), the GI50 in the test with UACC-257 melanoma is 35.2 µM; in the test on OVCAR-8 ovarian, 9.91 µM; in the test on HT29 colon, 13.3 µM; with MOLT-4 leukemia it was 83.7 µM; in the test on BT-549 breast it was 37.8 µM; in the test with HOP-62 NSCLC it was 49.3 µM. In addition, the GI50 with M14 melanoma was 67.9 µM; in the test on HL-60(TB) leukemia, more than 100 µM. Besides, the TGI in the test with UACC-257 melanoma, with OVCAR-8 ovarian, in the test on HT29 colon, with MOLT-4 leukemia, in the test with BT-549 breast and with HOP-62 NSCLC was more than 100 µM in each case. Moreover, the TGI in the test with M14 melanoma and in the test with HL-60(TB) leukemia was more than 100 µM throughout.

For `COc1ccc2c(c1)C(=O)/C(=C/c1ncc([N+](=O)[O-])n1C)O2`, the GI50 is 1.41 µM in the test on UACC-257 melanoma; 0.261 µM in the test on OVCAR-8 ovarian; 0.244 µM in the test on HT29 colon; 0.161 µM in the test on MOLT-4 leukemia; 0.618 µM in the test with BT-549 breast; 2.07 µM with HOP-62 NSCLC. Besides, the GI50 is 0.244 µM with M14 melanoma and 0.263 µM in the test with HL-60(TB) leukemia. Further, the TGI is 6.82 µM in the test on UACC-257 melanoma; 2.81 µM in the test with OVCAR-8 ovarian; 0.78 µM in the test with HT29 colon; 0.562 µM in the test with MOLT-4 leukemia; 1.99 µM in the test on BT-549 breast; 5.03 µM in the test with HOP-62 NSCLC. The TGI in the test with M14 melanoma was 0.737 µM; with HL-60(TB) leukemia it was 1.37 µM.

Take `CCSC1=C(C)N(C=NC(C)(C)C)CC1`: the TGI in the test on UACC-257 melanoma, with OVCAR-8 ovarian, in the test on DLD-1 colon, in the test on HT29 colon, in the test with MOLT-4 leukemia and in the test with HOP-62 NSCLC was more than 100 µM in each case. Besides, the TGI with DMS 114 small cell lung, in the test with M14 melanoma and with HL-60(TB) leukemia was more than 100 µM in each case.

With `O=C1c2c(n(Cc3ccccc3)c(=O)n2Cc2ccccc2)C(=O)N1Cc1ccccc1`, the TGI in the test with UACC-257 melanoma, with OVCAR-8 ovarian, in the test on DLD-1 colon, with HT29 colon, with MOLT-4 leukemia and with HOP-62 NSCLC was more than 100 µM throughout. The TGI in the test on DMS 114 small cell lung, in the test on M14 melanoma and with HL-60(TB) leukemia was more than 100 µM each time.
